From patent US6380217B1, “Methods for controlling GGT-positive bacteria” (priority 1999, dated 2002)

target: GGT (gamma glutamyl transpeptidase) of H. pylori ATCC 43504 cells (Helicobacter pylori, UniProt O25743); assay: Cell Based GGT Inhibitor (CBGI) Assay; conditions: whole H. pylori ATCC 43504 cells, ~30 min room temperature, AMC release fluorescence; table titled 'Binding Data of GGT Modulating Compounds'
Procedure: Cell Based GGT Inhibitor Assay
The protocol of the Cell Based GGT Inhibitor Assay (CBGI assay) is adapted from the Methods in Enzymology protocol 252: 66 (1995).
H. pylori Sample Preparation
H. pylori ATCC 43504 were grown on blood agar plates. For accurate results, the H. pylori cells were in a logarithmic, spiral phase. This was achieved by plating cells from a culture that was >75% spiral in a phosphate buffered saline (PBS) solution on blood agar plates and incubating them overnight in microaerophilic conditions at 37° C. The next day, the cells were harvested by adding 1 ml of PBS to the plate and scraping off cells gently with a loop. The cells were then placed in a sterile 50 ml conical tube and the plate was washed ˜5 times with 1 ml of PBS. The washes were then pooled in the same 50 ml tube. An OD600 was subsequently taken using PBS as the blank. The cells were then resuspended to reach a final OD600 of 0.05. A single blood agar plate typically yields approximately 50-75 mls of cells at A600 OD=0.05. 3 mls of cells at OD=0.05 are required for each 96-well plate; 30 μl added to each well yields a final OD of 0.015. 4-5 blood agar plates would yield more than enough H. pylori cells for 50 96-well microtitre plates.
On each test plate, two known inhibitors were added to separate control wells (4 μl 0.25 mM azaserine and 4 μl 1.25 mM γ-glu-hydroxamate). Control wells containing only cells were also included on each test plate. In each well, 70 μl of buffer was added using an automated dispenser. Then, 30 μl H. pylori cells were added at OD A600=0.05. After the cells were added to each well, the plate was kept at room temperature for ˜30 minutes. The reaction was terminated by dispensing 75 μl 100 mM glycine to each well.
GGT inhibition was determined by analyzing the release of amido-4-methylcoumarin (AMC) at A460 nm after excitation at A360 in Cytoflour//Walloc fluorescent plate reader. The data was compared to the average of the two control wells from each plate and the γ-glu-hydroxamate control, which should always be ˜50%. Any compound that inhibited ≦50% activity was retested.

GGT (gamma glutamyl transpeptidase) of H. pylori ATCC 43504 cells, sequence (O25743 entry or part of it): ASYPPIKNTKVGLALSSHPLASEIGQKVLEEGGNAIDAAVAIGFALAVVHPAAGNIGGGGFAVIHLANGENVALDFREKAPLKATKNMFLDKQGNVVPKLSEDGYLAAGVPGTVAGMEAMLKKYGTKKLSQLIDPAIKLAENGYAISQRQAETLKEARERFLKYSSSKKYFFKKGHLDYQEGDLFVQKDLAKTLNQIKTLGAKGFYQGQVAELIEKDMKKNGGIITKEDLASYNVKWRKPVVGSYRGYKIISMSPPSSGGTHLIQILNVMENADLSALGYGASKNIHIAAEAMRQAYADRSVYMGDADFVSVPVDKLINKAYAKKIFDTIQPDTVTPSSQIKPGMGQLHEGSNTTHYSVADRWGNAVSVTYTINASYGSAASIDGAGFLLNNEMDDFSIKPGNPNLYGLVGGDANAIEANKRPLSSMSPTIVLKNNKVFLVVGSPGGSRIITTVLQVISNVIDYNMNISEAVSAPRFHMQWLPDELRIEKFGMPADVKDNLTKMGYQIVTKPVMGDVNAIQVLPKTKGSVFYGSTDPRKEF

Compound	IC50
Cc1nc(-c2nc(C(=O)/C=C/N(C)C)cs2)cs1 [C]	17.9 to 35.8 µM
CCN(CC)CCn1c(SCC(=O)c2ccc(-c3ccccc3)cc2)nc2cc(C(=O)NC(Cc3cn(Cc4ccccc4)cn3)C(N)=O)ccc21 (stereo not shown) [E]	11.2 µM
Cc1ccc(CSc2nnc(/N=C/N(C)C)s2)cc1 [F]	2.02 µM
CCN1CCCC(NC(=O)c2ccc(Nc3ccnc4cc5ccccc5cc34)cc2)C1 (stereo not shown) [A]	1.13 µM
CC(C)OC(=O)CSc1nc2cc(C(=O)NC(Cc3cnc[nH]3)C(N)=O)ccc2n1CCc1c[nH]c2ccccc12 (stereo not shown) [D]	4.53 µM
COc1cccc(-c2cc3[nH]c(C)cc(=O)n3n2)c1 [G]	2.15 µM
COc1cc(/C=C2/SC(=S)NC2=O)ccc1O [B]	22.4 µM
